In PMC11413854, “Reversible Control of Native GluN2B-Containing NMDA Receptors with Visible Light” (ACS Chemical Neuroscience, 2024):
Values joined by “and” are separate entries in the source; they are usually repeats but may differ in a detail not shown here. Identical values can stand only once.

Test system: Xenopus laevis tadpoles
Experiment: Behavioral test: locomotion of free-swimming tadpoles under light cycles
Format: in vivo
Settings: for reduction in locomotor activity in the dark vs baseline / Normalized travelled distance by tadpoles (/baseline/control), mean: 5 µM; for reduction in locomotor activity in the dark vs baseline: 45 min incubation; for Normalized travelled distance by tadpoles (/baseline): per well (mean of 3 tadpoles)
Description: In our behavioral assay, tadpoles were placed in groups of three animals per well of a 12-well plate allowing them to swim freely. Their baseline locomotion was recorded for 3 min in the dark, after which they were incubated for 45 min in a solution containing either 0.1% DMSO (control) or 5 μM OptoNAM-3 (refer to Methods and Figure S5A for details). For each condition (control and OptoNAM-3), tadpole locomotion was recorded for 3 min in the dark, followed by cycles of 1 min illumination at 365 nm and then 550 nm, and interspersed with 3 min rest periods to avoid bias due to a poststimulation refractory period[51],[56] (Figure S5A). We also conducted the same protocol using 460/550 nm light cycles, as OptoNAM-3 can switch from the trans to cis state upon exposure to blue light at 460 nm when pre-equilibrated on cells (see above). The tadpole traveled distance was calculated from precise position coordinates of tadpole body parts across frames, assessed by automatic position multianimal tracking using the open-source program DeepLabCut.[57],[58]Xenopus laevis tadpoles present nonvisual photoreceptors that generate a photomotor response characterized by an increase of activity upon UV light illumination.[59] We indeed observed an increase in tadpole locomotion with UV and blue light compared to 550 nm light in the control condition (∼1.5-fold, Figures 6A,B and S5B,C, gray points). The photodependent effect of OptoNAM-3 on locomotion was therefore quantified by calculating the traveled distance normalized twice: by the tadpole baseline locomotion (to decrease interindividual variability linked to the locomotion speed) and, for each condition, by the locomotion of the control group (to remove the nonspecific effect of UV or blue light). […] Their locomotion could be restored to baseline activity with UV or blue light and inhibited again by 550 nm light for two cycles (Figure 6C,D and Movies S1 and S2). Consequently, OptoNAM-3 enabled fast and reversible control of tadpole locomotion using light. In addition, the compound red-shifted properties observed in vitro were conserved in vivo. OptoNAM-3 therefore holds great promise to photocontrol native GluN2B-NMDARs with the high biocompatibility of red-shifted photoswitches.[29],[31]
Xenopus laevis embryos were obtained from the European Xenopus Resource Centre (EXRC, Portsmouth, UK) or TEFOR Paris Sackay (Saclay, France), maintained in Modified Barth’s Saline (MBS) 0.1× (pH adjusted to 7.8 with NaOH), and supplemented with 10 μg/mL of gentamicin, in 10 cm Petri dishes with a maximum of 50 tadpoles per dish. The embryos were stored at 18 °C until they reached stage 49 (12–14 days postfertilization).[86] Experiments on Xenopus tadpoles were performed according to European Union guidelines (project authorization Apafis #44976–2023092616413977)
For the experiments (see Figure S5A), stage 49 X. laevis tadpoles were placed in the center of a 12-well plate at a density of three animals per well in 0.1× MBS. The 12-well plate was covered with a 3D-printed dome equipped with a liquid guide (15 cm) connected to a multichannel LED delivery system (CoolLed pE-4000) at the top. The plate was positioned on optical cast plastic infrared filters, which allowed only wavelengths above 650 nm to pass, and red light (770 nm at 15% intensity) was continuously applied during recording to enable video recording in the dark. […] Subsequently, the tadpoles were incubated in the dark for 30 min in a 60 × 15 mm Petri dish containing 5 mL of either the vehicle (0.1% DMSO in MBS 0.1×) or OptoNAM-3 solution (5 μM in MBS 0.1×) to facilitate drug penetration. Afterward, the tadpoles were transferred back to the 12-well plate, which contained either the vehicle solution or OptoNAM-3 (5 μM), and habituation to red light was performed again for 15 min. […]

[1] = Sup. Fig. 5B, UV/green cycles, second data block (c27-c50), raw

**Q.** `c1ccc(/N=N/c2ccc(CCNc3ccncc3)cc2)cc1` [OptoNAM-3, (E)-N-(4-(Phenyldiazenyl)phenethyl)pyridin-4-amine] was tested. Which “reduction in locomotor activity in the dark vs baseline” value (UV/visible cycle protocol group) did it give?
**A.** 35%

**Q.** And the “reduction in locomotor activity in the dark vs baseline” value (blue/green cycle protocol group)?
**A.** 50%

**Q.** And the “Normalized travelled distance by tadpoles (/baseline/control), mean” value (Fig 6C, 365 nm (1), UV/green light cycle experiment)?
**A.** 1.089

**Q.** And the “Normalized travelled distance by tadpoles (/baseline/control), mean” value (Fig 6C, 365 nm (2), UV/green light cycle experiment)?
**A.** 0.883

**Q.** What about the “Normalized travelled distance by tadpoles (/baseline/control), mean” value (Fig 6C, 550 nm (1), UV/green light cycle experiment) of the same compound?
**A.** 0.484

**Q.** And the “Normalized travelled distance by tadpoles (/baseline/control), mean” value (Fig 6C, 550 nm (2), UV/green light cycle experiment)?
**A.** 0.221

**Q.** What about the “Normalized travelled distance by tadpoles (/baseline/control), mean” value (Fig 6C, dark, UV/green light cycle experiment) of the same compound?
**A.** 0.649

**Q.** What about the “Normalized travelled distance by tadpoles (/baseline/control), mean” value (Fig 6D, 460 nm (1), blue/green light cycle experiment) of the same compound?
**A.** 2.548

**Q.** What about the “Normalized travelled distance by tadpoles (/baseline/control), mean” value (Fig 6D, 460 nm (2), blue/green light cycle experiment) of the same compound?
**A.** 2.278

**Q.** And the “Normalized travelled distance by tadpoles (/baseline/control), mean” value (Fig 6D, 550 nm (1), blue/green light cycle experiment)?
**A.** 0.587

**Q.** And the “Normalized travelled distance by tadpoles (/baseline/control), mean” value (Fig 6D, 550 nm (2), blue/green light cycle experiment)?
**A.** 0.462

**Q.** What about the “Normalized travelled distance by tadpoles (/baseline/control), mean” value (Fig 6D, dark, blue/green light cycle experiment) of the same compound?
**A.** 0.509

**Q.** And the “Distance in mm, well mean of 3 tadpoles, uv 1 min” value (Sup. Fig. 5B, UV/green cycles, first data block (c1-c24), raw)?
**A.** 543.756 mm and 730.486 mm and 588.764 mm and 724.010 mm and 734.699 mm and 651.720 mm and 525.360 mm and 469.552 mm

**Q.** And the “Distance in mm, well mean of 3 tadpoles, green2 1 min” value [1]?
**A.** 28.734 mm and 47.149 mm and 41.068 mm and 52.900 mm and 46.164 mm and 30.050 mm and 28.925 mm and 43.119 mm

**Q.** And the “Distance in mm, well mean of 3 tadpoles, uv 1 min” value [1]?
**A.** 636.734 mm and 582.355 mm and 684.728 mm and 679.263 mm and 728.479 mm and 513.366 mm and 700.914 mm and 476.462 mm

**Q.** What about the “Normalized travelled distance by tadpoles (/baseline), single well” value (Sup. Fig. 5B, 365 nm (1), individual wells) of the same compound?
**A.** 1.393 and 3.082 and 2.491 and 2.557 and 3.849 and 6.596 and 1.808 and 1.431 and 6.280 and 5.411 and 9.003 and 6.422 and 6.492

**Q.** What about the “Normalized travelled distance by tadpoles (/baseline), mean” value (Sup. Fig. 5B, 365 nm (1), mean of 16 wells) of the same compound?
**A.** 4.878

**Q.** What about the “Normalized travelled distance by tadpoles (/baseline), single well” value (Sup. Fig. 5B, 365 nm (2), individual wells) of the same compound?
**A.** 1.002 and 2.077 and 1.181 and 1.514 and 2.542 and 5.415 and 1.765 and 1.460 and 5.497 and 4.718 and 10.726 and 5.196 and 4.515

**Q.** And the “Normalized travelled distance by tadpoles (/baseline), mean” value (Sup. Fig. 5B, 365 nm (2), mean of 16 wells)?
**A.** 4.635

**Q.** What about the “Normalized travelled distance by tadpoles (/baseline), single well” value (Sup. Fig. 5B, 550 nm (1), individual wells) of the same compound?
**A.** 0.458 and 1.858 and 0.896 and 0.456 and 0.161 and 0.143 and 0.389 and 0.051 and 0.457 and 0.356 and 0.468 and 0.574 and 0.522

**Q.** And the “Normalized travelled distance by tadpoles (/baseline), mean” value (Sup. Fig. 5B, 550 nm (1), mean of 16 wells)?
**A.** 0.561

**Q.** What about the “Normalized travelled distance by tadpoles (/baseline), single well” value (Sup. Fig. 5B, 550 nm (2), individual wells) of the same compound?
**A.** 0.073 and 0.057 and 0.075 and 0.047 and 0.119 and 0.187 and 0.194 and 0.072 and 0.283 and 0.438 and 0.540 and 0.500 and 0.411

**Q.** And the “Normalized travelled distance by tadpoles (/baseline), mean” value (Sup. Fig. 5B, 550 nm (2), mean of 16 wells)?
**A.** 0.274

**Q.** What about the “Normalized travelled distance by tadpoles (/baseline), single well” value (Sup. Fig. 5B, dark, individual wells (each well is the mean of 3 tadpole)) of the same compound?
**A.** 0.095 and 0.145 and 0.255 and 0.231 and 0.246 and 0.190 and 0.129 and 0.073 and 0.384 and 0.405 and 0.424 and 0.476 and 0.614

**Q.** What about the “Normalized travelled distance by tadpoles (/baseline), mean” value (Sup. Fig. 5B, dark, mean of 16 wells (each well is the mean of 3 tadpole)) of the same compound?
**A.** 0.393

**Q.** And the “Normalized travelled distance by tadpoles (/baseline)” value (Sup. Fig. 5B, dark)?
**A.** 0.643 and 0.955 and 1.031

**Q.** And the “Normalized travelled distance by tadpoles (/baeline/control), single well” value (Sup. Fig. 5C, 460 nm (1), individual wells)?
**A.** 1.914 and 1.376 and 8.550 and 2.480 and 4.315 and 7.810 and 5.706 and 5.046 and 11.224 and 1.065 and 13.799 and 8.327 and 1.491

**Q.** What about the “Normalized travelled distance by tadpoles (/baeline/control), mean” value (Sup. Fig. 5C, 460 nm (1), mean of 17 wells) of the same compound?
**A.** 6.279

**Q.** And the “Normalized travelled distance by tadpoles (/baeline/control), single well” value (Sup. Fig. 5C, 460 nm (2), individual wells)?
**A.** 2.036 and 1.506 and 10.137 and 2.268 and 4.306 and 11.041 and 6.016 and 15.287 and 9.339 and 1.297 and 11.889 and 4.687 and 3.893

**Q.** What about the “Normalized travelled distance by tadpoles (/baeline/control), mean” value (Sup. Fig. 5C, 460 nm (2), mean of 17 wells) of the same compound?
**A.** 6.476

**Q.** And the “Normalized travelled distance by tadpoles (/baseline)” value (Sup. Fig. 5C, 460 nm (2))?
**A.** 8.083 and 4.823 and 6.568 and 6.920

**Q.** And the “Normalized travelled distance by tadpoles (/baeline/control), single well” value (Sup. Fig. 5C, 550 nm (1), individual wells)?
**A.** 0.384 and 0.350 and 1.155 and 0.578 and 0.301 and 1.159 and 2.310 and 0.844 and 0.446 and 0.287 and 2.947 and 0.796 and 0.259

**Q.** What about the “Normalized travelled distance by tadpoles (/baeline/control), mean” value (Sup. Fig. 5C, 550 nm (1), mean of 17 wells) of the same compound?
**A.** 0.899

**Q.** What about the “Normalized travelled distance by tadpoles (/baeline/control), single well” value (Sup. Fig. 5C, 550 nm (2), individual wells) of the same compound?
**A.** 0.201 and 0.140 and 0.631 and 0.384 and 0.385 and 0.939 and 0.448 and 0.727 and 1.019 and 0.143 and 0.892 and 1.756 and 0.609

**Q.** And the “Normalized travelled distance by tadpoles (/baeline/control), mean” value (Sup. Fig. 5C, 550 nm (2), mean of 17 wells)?
**A.** 0.702

**Q.** What about the “Normalized travelled distance by tadpoles (/baseline)” value (Sup. Fig. 5C, 550 nm (2)) of the same compound?
**A.** 1.231 and 0.815 and 0.780 and 0.842

**Q.** And the “Normalized travelled distance by tadpoles (/baeline/control), single well” value (Sup. Fig. 5C, dark, individual wells (each well is the mean of 3 tadpole))?
**A.** 0.118 and 0.080 and 0.825 and 0.228 and 0.352 and 1.330 and 0.587 and 0.877 and 0.773 and 0.144 and 0.553 and 0.717 and 0.589

**Q.** And the “Normalized travelled distance by tadpoles (/baeline/control), mean” value (Sup. Fig. 5C, dark, mean of 17 wells (each well is the mean of 3 tadpole))?
**A.** 0.520

**Q.** And the “Normalized travelled distance by tadpoles (/baseline)” value (Sup. Fig. 5C, dark)?
**A.** 0.453 and 0.357 and 0.524 and 0.331
